This is an account of results in ChEMBL document CHEMBL2040781, “Design, synthesis, and biological evaluation of chromone-based p38 MAP kinase inhibitors” (J Med Chem, 2011).

The experiment deals with Mitogen-activated protein kinase 14 (Homo sapiens, UniProt Q16539). Briefly: Inhibition of p38alpha MAPK after 40 mins by scintillation counting.
Mitogen-activated protein kinase 14, sequence (Q16539 whole entry): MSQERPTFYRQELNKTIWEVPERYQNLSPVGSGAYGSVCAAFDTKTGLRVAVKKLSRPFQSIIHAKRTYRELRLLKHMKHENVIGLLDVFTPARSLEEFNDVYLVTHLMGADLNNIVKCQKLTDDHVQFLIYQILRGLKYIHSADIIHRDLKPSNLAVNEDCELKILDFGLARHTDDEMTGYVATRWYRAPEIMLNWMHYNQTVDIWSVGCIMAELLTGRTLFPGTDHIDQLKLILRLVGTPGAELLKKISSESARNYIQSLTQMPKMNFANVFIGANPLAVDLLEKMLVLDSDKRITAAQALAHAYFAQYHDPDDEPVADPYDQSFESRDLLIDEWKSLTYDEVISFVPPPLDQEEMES

Regarding `O=c1c(-c2ccc(F)cc2)c(-c2ccnc(NC3CCOCC3)c2)oc2ccccc12`, the IC50 (in general, the concentration that inhibits the measured activity by half) was found to be 45 nM.

On to `O=c1c(-c2ccc(F)cc2)c(-c2ccnc(NCc3ccccc3)c2)oc2ccccc12`, for which the IC50 was found to be 35 nM.

For the molecule `O=c1c(-c2ccc(F)cc2)c(-c2ccncc2)oc2ccccc12`, the midpoint of inhibition, the IC50, lay at 813 nM.

`COCCCNc1cc(-c2oc3ccccc3c(=O)c2-c2ccc(F)cc2)ccn1` displayed an IC50 of 39 nM.

With `O=c1c(-c2ccc(F)cc2)c(-c2ccnc(Cl)c2)oc2ccccc12`, the IC50 stood at 1380 nM.

Take `CCCCNc1cc(-c2oc3ccccc3c(=O)c2-c2ccc(F)cc2)ccn1`: the IC50 worked out at 21 nM.

In turn, `CN(C)CCCNc1cc(-c2oc3ccccc3c(=O)c2-c2ccc(F)cc2)ccn1` had an IC50 of 761 nM.
